In ChEMBL document CHEMBL5625242, “Discovery of brain permeable 2-Azabicyclo[2.2.2]octane sulfonamides as a novel class of presenilin-1 selective γ-secretase inhibitors” (Eur J Med Chem, 2023):

Legend:
[1] = Inhibition of human PSEN1/APH1A expressed in MEF cells with Psen1/2 double knockout/Aph1ABC triple knockout by ELISA; assay type: cell-based
[2] = Inhibition of human PSEN1/APH1B expressed in MEF cells with Psen1/2 double knockout/Aph1ABC triple knockout by ELISA; assay type: cell-based
[3] = Inhibition of human PSEN2/APH1A expressed in MEF cells with Psen1/2 double knockout/Aph1ABC triple knockout by ELISA; assay type: cell-based
[4] = Inhibition of human PSEN2/APH1B expressed in MEF cells with Psen1/2 double knockout/Aph1ABC triple knockout by ELISA; assay type: cell-based
[5] = species on record: Homo sapiens; experiment: Selectivity ratio of IC50 for human PSEN1/APH1A expressed in MEF cells with Psen1/2 double knockout/Aph1ABC triple knockout to IC50 for human PSEN1/APH1B expressed in MEF cells with Psen1/2 double knockout/Aph1ABC triple knockout; assay type: cell-based
[6] = Metabolic stability in human liver microsomes assessed as intrinsic clearance; assay type: ADME, Microsome; settings: liver microsomes, read-out: CLH
[7] = Metabolic stability in mouse liver microsomes assessed as intrinsic clearance; assay type: ADME, Microsome; settings: liver microsomes, read-out: CLH
[8] = species on record: Homo sapiens; experiment: Selectivity ratio of IC50 for human PSEN2/APH1A expressed in MEF cells with Psen1/2 double knockout/Aph1ABC triple knockout to IC50 for human PSEN1/APH1B expressed in MEF cells with Psen1/2 double knockout/Aph1ABC triple knockout; assay type: cell-based
[9] = species on record: Homo sapiens; experiment: Selectivity ratio of IC50 for human PSEN2/APH1B expressed in MEF cells with Psen1/2 double knockout/Aph1ABC triple knockout to IC50 for human PSEN1/APH1B expressed in MEF cells with Psen1/2 double knockout/Aph1ABC triple knockout; assay type: cell-based

| SMILES | IC50 [1] [nM] | IC50 [2] [nM] | IC50 [3] [nM] | IC50 [4] [nM] | microsomal CLint [6] [µL/min/mg] | microsomal CLint [7] [µL/min/mg] | Ratio IC50 [5] | Ratio IC50 [8] | Ratio IC50 [9] |
| --- | --- | --- | --- | --- | --- | --- | --- | --- | --- |
| O=C1C[C@@H]2CC[C@H]1[C@@H](c1cc(F)ccc1F)N2S(=O)(=O)c1ccc(Cl)s1 (racemic) | 7080 | 512 | > 10000 | > 10000 |  |  | 13 |  |  |
| O=C1C[C@@H]2CC[C@H]1[C@@H](c1ccc(F)c(F)c1)N2S(=O)(=O)c1ccc(Cl)cc1 (racemic) | > 5370 | 1120 | > 10000 | > 10000 |  |  | > 3 |  |  |
| COc1ccc(S(=O)(=O)N2[C@H]3CC[C@H](C(=O)C3)[C@H]2c2ccc(C(F)(F)F)cc2)cc1 (racemic) | > 10000 | 1440 | > 10000 | > 10000 |  |  | > 40 |  |  |
| CCOC(=O)Nc1ccc([C@@H]2[C@@H]3CC[C@@H](CC3=O)N2S(=O)(=O)c2ccc(Cl)cc2)cc1 (racemic) | 3240 | 288 | 6170 | 6460 |  |  | > 11 | > 20 | > 20 |

Stronger by IC50 [1], values ahead:

| IC50 [1] [nM] | IC50 [2] [nM] | IC50 [3] [nM] | IC50 [4] [nM] | microsomal CLint [6] [µL/min/mg] | microsomal CLint [7] [µL/min/mg] | SMILES | Ratio IC50 [5] | Ratio IC50 [8] | Ratio IC50 [9] |
| --- | --- | --- | --- | --- | --- | --- | --- | --- | --- |
| 67 | 12 | 741 | 2180 | 111 | 118 | N#Cc1ccc([C@@H]2[C@@H]3CC[C@@H](C[C@@H]3O)N2S(=O)(=O)c2ccc(Cl)cc2)cn1 (racemic) |  |  |  |
| 41.7 | 7.2 | 2820 | 2450 | > 347 | > 347 | O=S(=O)(c1ccc(Cl)cc1)N1[C@H]2CC[C@@H]([C@H]1c1ccc(C(F)(F)F)cc1)[C@@H](O)C2 (racemic) |  |  |  |
| 1.4 | 0.42 | 154 | 139 |  |  | O=S(=O)(N[C@H]1CC[C@@](c2cc(F)ccc2F)(S(=O)(=O)c2ccc(Cl)cc2)CC1)C(F)(F)F |  | > 300 | > 300 |
| 316 | 34 | > 10000 | > 5000 |  |  | O=C1C[C@@H]2CC[C@H]1[C@@H](c1ccc(C(F)(F)F)cc1)N2S(=O)(=O)c1ccc(Cl)cc1 (racemic) | 9 | > 150 | > 150 |
| 37 | 25 | 370 | 380 |  |  | O=S(=O)(c1ccc(Cl)cc1)N1[C@H]2CC[C@@H]([C@H]1c1cc(F)ccc1F)[C@@H](O)C2 (racemic) |  | 12 | 12 |
